Values of other authors, collected in US6605646B2, “Vitamin supplement composition” (Upsher-Smith Laboratories, Inc., priority 1995, dated 2003).

Conditions: grain fortification, elderly adults

Nc1nc2ncc(CNc3ccc(C(=O)N[C@@H](CCC(=O)O)C(=O)O)cc3)nc2c(=O)[nH]1 [folic acid, pteroylglutamic acid]
serum folate: increased serum folate
serum homocysteine: decreased serum homocysteine
